Measured values from US8436155B2, “7,2″-dehydrate puerarin and its salts, preparation method and use thereof” (Shandong University, priority 2010, dated 2013).

Columns and labels:
rat arrhythmias = assay: Antiarrhythmic experiment: arrhythmia induced by 0.1% BaCl2 in rats, ECG monitored for 30 min; type: in vivo, Wistar rats; details: for Arrhythmia duration: if not restored within 30 min, the record was 30 min
Procedure: 1. Method: 60 male, healthy adult Wistar rats with body weight of 180-220 g were randomly divided into 6 groups, i.e., a normal saline group, a propylene glycol solvent gavage group, a propylene glycol solvent intravenous injection group, a puerarin injection group, a 7,2″-dehydrate puerarin gavage group, and a 7,2″-dehydrate puerarin intravenous injection group, with 10 rats each group. The intravenous injection was carried out one time a day for three consecutive days. The gavage was carried out two times a day for three consecutive days. The normal saline group was administered with equal volume of 0.9% NaCl injection. The dose of the propylene glycol solvent gavage group was 14.3% propylene glycol 1 mL/100 g. The dose of the propylene glycol solvent intravenous injection group was 40% propylene glycol 0.5 mL/100 g. The dose of the puerarin injection group was 50 mg/kg. The dose of the 7,2″-dehydrate puerarin gavage group was 60 mg/kg. The dose of the 7,2″-dehydrate puerarin intravenous injection group was 30 mg/kg. The rats were anesthetized with 10% chloral hydrate (0.35 mL/100 g) by intraperitoneal injection and fixed in the back. A BL-410 biological functional system was introduced to monitor the ECG changes of the rats. A femoral vein of the rats was exposed, a scalp needle inserted, and a constant speed syringe pump connected. 0.1% BaCl2 was pumped with a dose of 0.1 mL/100 g and a speed of 0.6 mL/min. From the injection of BaCl2 on, the ECGs were monitored and recorded within 30 min. The arrhythmia latency and arrhythmia duration were recorded (if not restored within 30 min, the record was 30 min). The experimental results were collected and analyzed using Software SPSS. If P<0.05, the results has significant difference.

rabbit blood coagulation = assay: Anticoagulation experiment in vitro: coagulation time of oxalated rabbit blood after adding CaCl2; details: 37±0.5° C., x ± SD
Procedure: 1. Method: A rabbit was weighed and injected with 3% sodium pentobarbital 1 mL/kg via an ear vein, and then anaesthetized. […] The resulting solution was shaken uniformly and put into a constant temperature water bath (37±0.5° C.). Every 30 seconds, the small test tubes were tilted slightly once, and the coagulation time was recorded (the test tubes were tilted slightly, if no blood bled, the time was recorded as coagulation time). The experimental results were collected and analyzed using Software SPSS. If P<0.05, the results has significant difference.

platelet aggregation = details: in vitro, dose-dependent; read-out: IC50, inhibition on platelet aggregation in vitro; cited from earlier work

| Structure (SMILES) | Arrhythmia latency (rat arrhythmias; gavage, 60 mg/kg, two times a day for three days, x ± SD) | Arrhythmia duration (rat arrhythmias; gavage, 60 mg/kg, x ± SD) | Arrhythmia latency (rat arrhythmias; intravenous injection, 30 mg/kg, once a day for three days, x ± SD) | Arrhythmia duration (rat arrhythmias; intravenous injection, 30 mg/kg, x ± SD) | coagulation time (rabbit blood coagulation; 0.75 mg/mL (low dose)) | coagulation time (rabbit blood coagulation; 1.5 mg/mL (medium dose)) | coagulation time (rabbit blood coagulation; 3 mg/mL) | IC50 (platelet aggregation) | Arrhythmia duration (rat arrhythmias; puerarin injection group, 50 mg/kg) | Arrhythmia latency (rat arrhythmias; puerarin injection group, 50 mg/kg, once a day for three days, x ± SD) |
| --- | --- | --- | --- | --- | --- | --- | --- | --- | --- | --- |
| O=c1c(-c2ccc(O)cc2)coc2c3c(ccc12)O[C@@H]1[C@@H](O)[C@H](O)[C@@H](CO)O[C@@H]31 [7,2″-dehydrate puerarin] | 29.25 ± 5.12 s | 2.09 ± 0.98 min | 47.25 ± 19.87 s | 17.75 ± 4.61 min | 14.7 ± 1.6 min | 22.7 ± 2.6 min | 38.5 ± 2.1 min |  |  |  |
| CC(=O)Oc1ccccc1C(=O)Oc1ccc2c(=O)c(-c3ccc(O)cc3)coc2c1[C@@H]1O[C@H](CO)[C@@H](O)[C@H](O)[C@H]1O [7-acetylsalicylic acyl puerarin] |  |  |  |  |  |  |  | 910 µM |  |  |
| O=c1c(-c2ccc(O)cc2)coc2c([C@@H]3O[C@H](CO)[C@@H](O)[C@H](O)[C@H]3O)c(O)ccc12 [Puerarin] |  |  |  |  |  |  | 15.3 ± 2.4 min |  | 30 min | 86.75 ± 42.55 s |
